Measured values as given in ChEMBL document CHEMBL5365510, “Discovery of Novel, Thienopyridine-Based Tyrosine Kinase Inhibitors Targeting Tumorigenic RON Splice Variants” (ACS Med Chem Lett, 2023).
Activity calls are given as the source filed them. The rule behind the calls is not given here.

Columns and labels:
[1] = Antiproliferative activity against human SW480E cells harbouring KRAS G12V mutant and RON delta 160 assessed as cell growth inhibition measured after 72 hrs by MTS assay; format: functional
CAPAN-1 = assay: Antiproliferative activity against human CAPAN-1 cells harbouring KRAS G12V mutant and RON delta 155 assessed as cell growth inhibition measured after 72 hrs by MTS assay; format: functional
KM12C [2] = assay: Antiproliferative activity against human KM12-C cells harbouring wild-type KRAS and RON delta 160 assessed as cell growth inhibition measured after 72 hrs by MTS assay; format: functional
[3] = Antiproliferative activity against human SNU-1047 cells harbouring wild-type KRAS and RON delta 155 assessed as cell growth inhibition measured after 72 hrs by MTS assay; format: functional
[4] = Antitumor activity against patient derived Colorectal cancer cell harbouring wild-type KRAS and RON delta 160 xenografted in BALB/c mouse assessed as tumor growth inhibition at 10 mg/kg, po qd measured after 28 days; format: functional; conditions: Homo sapiens, 672 h, time 28 day, read-out: TGI
ASPC1 = assay: Antiproliferative activity against human ASPC1 cells harbouring KRAS G12D mutant and RON delta 165 assessed as cell growth inhibition measured after 72 hrs by MTS assay; format: functional
SW480 = assay: Antiproliferative activity against human SW480 cells harbouring KRAS G12V mutant and RON delta 155 assessed as cell growth inhibition measured after 72 hrs by MTS assay; format: functional
SW1417 = assay: Antiproliferative activity against human SW1417 cells harbouring wild-type KRAS and RON delta 155 assessed as cell growth inhibition measured after 72 hrs by MTS assay; format: functional
PANC-03-27 = assay: Antiproliferative activity against human Panc 03.27 cells harbouring KRAS G12V mutant and RON delta 155 assessed as cell growth inhibition measured after 72 hrs by MTS assay; format: functional
PANC-1 = assay: Antiproliferative activity against human PANC-1 cells harbouring KRAS G12D mutant and RON delta 155 assessed as cell growth inhibition measured after 72 hrs by MTS assay; format: functional
MIA PaCa-2 = assay: Antiproliferative activity against human MIA PaCa-2 cells harbouring KRAS G12C mutant and RON delta 160 assessed as cell growth inhibition measured after 72 hrs by MTS assay; format: functional
HCT-15 = assay: Antiproliferative activity against human HCT-15 cells harbouring KRAS G13D mutant and RON delta 160 assessed as cell growth inhibition measured after 72 hrs by MTS assay; format: functional
LS-411N = assay: Antiproliferative activity against human LS-411N cells harbouring wild-type KRAS and RON delta 155 assessed as cell growth inhibition measured after 72 hrs by MTS assay; format: functional
T84 = assay: Antitumor activity against human T84 cells harbouring RON delta 165 xenografted in BALB/c mouse assessed as tumor growth inhibition at 30 mg/kg, po qd measured after 34 days; format: functional; conditions: T84, 816 h, time 34 day, read-out: TGI
SW-620 [5] = assay: Antiproliferative activity against human SW620 cells harbouring KRAS G12 V mutant and RON delta 155 assessed as cell growth inhibition measured after 72 hrs by MTS assay; format: functional
HT-29 [6] = assay: Antiproliferative activity against human HT-29 cells harbouring wild-type KRAS and RON delta 160 assessed as cell growth inhibition measured after 72 hrs by MTS assay; format: functional
SW-620 [7] = assay: Antitumor activity against human SW620 cells harbouring RON delta 155 xenografted in BALB/c mouse assessed as tumor growth inhibition at 30 mg/kg, po qd measured after 28 days; format: functional; conditions: SW-620, 672 h, time 28 day, read-out: TGI
NIH3T3 [8] = assay: Inhibition of RON splicing variant 165 (unknown origin) transfected in […] cells assessed as reduction in RON phosphorylation at 100 uM incubated for 2 hrs by Western blotting analysis; format: cell-based
NIH3T3 [9] = assay: Inhibition of RON splicing variant 155 (unknown origin) transfected in […] cells assessed as reduction in RON phosphorylation at 100 uM incubated for 2 hrs by Western blotting analysis; format: cell-based
KM12C [10] = assay: Antitumor activity against human KM12-C cells harbouring RON delta 160 xenografted in BALB/c mouse assessed as tumor growth inhibition at 3 mg/kg, po qd measured after 14 days; format: functional; conditions: 336 h, time 14 day, read-out: TGI
[11] = Clearance in Sprague-Dawley rat at 1 mg/kg, iv measured after 24 hrs by LC/MS/MS analysis; format: ADME, organism-based; conditions: in vivo, iv, 1 mg/kg, 24 h
NIH3T3 [12] = assay: Inhibition of RON splicing variant 160 (unknown origin) transfected in […] cells assessed as reduction in RON phosphorylation at 100 uM incubated for 2 hrs by Western blotting analysis; format: cell-based
KM12C [13] = assay: Antitumor activity against human KM12-C cells harbouring RON delta 160 xenografted in BALB/c mouse assessed as tumor growth inhibition at 30 mg/kg, po qd measured after 14 days; format: functional; conditions: 336 h, time 14 day, read-out: TGI
KM12C [14] = assay: Antitumor activity against human KM12-C cells harbouring RON delta 160 xenografted in BALB/c mouse assessed as tumor growth inhibition at 10 mg/kg, po qd measured after 14 days; format: functional; conditions: 336 h, time 14 day, read-out: TGI
[15] = AUC(0 to infinity) in Sprague-Dawley rat at 1 mg/kg, iv measured after 24 hrs by LC/MS/MS analysis; format: ADME, organism-based; parameters: time 24 hrs, dose 1 mg/kg, route iv; conditions: in vivo, 24 h
[16] = Half life in Sprague-Dawley rat at 5 mg/kg, po measured after 24 hrs by LC/MS/MS analysis; format: ADME, organism-based; conditions: in vivo
[17] = Metabolic stability in human liver microsomes assessed as parent compound remaining after 30 mins in presence of NADPH by LC/MS/MS analysis; format: ADME, Microsome; conditions: read-out: Stability
[18] = Oral bioavailability in Sprague-Dawley rat at 5 mg/kg measured after 24 hrs by LC/MS/MS analysis; format: ADME, organism-based; conditions: in vivo, po, 5 mg/kg, 24 h
KM12C [19] = assay: Antiproliferative activity against human KM12-C cells harbouring wild-type KRAS and RON delta 160 assessed as cell death rate at 5 uM measured after 48 hrs by trypan blue exclusion assay relative to control; format: functional
[20] = Cmax in Sprague-Dawley rat at 5 mg/kg, po measured after 24 hrs by LC/MS/MS analysis; format: ADME, organism-based; parameters: dose 5 mg/kg, time 24 hrs, route po; conditions: in vivo
[21] = AUC(0 to infinity) in Sprague-Dawley rat at 5 mg/kg, po measured after 24 hrs by LC/MS/MS analysis; format: ADME, organism-based; parameters: dose 5 mg/kg, time 24 hrs, route po; conditions: in vivo, 24 h
HT-29 [22] = assay: Antiproliferative activity against human HT-29 cells harbouring wild-type KRAS and RON delta 160 assessed as cell death rate at 5 uM measured after 48 hrs by trypan blue exclusion assay relative to control; format: functional
[23] = Tmax in Sprague-Dawley rat at 5 mg/kg, po measured after 24 hrs by LC/MS/MS analysis; format: ADME, organism-based; conditions: in vivo
KM12C [24] = assay: Antitumor activity against human KM12-C cells harbouring RON delta 160 xenografted in BALB/c mouse assessed as tumor growth inhibition at 1 mg/kg, po qd measured after 14 days; format: functional; conditions: 336 h, time 14 day, read-out: TGI
[25] = Volume of distribution at steady state in Sprague-Dawley rat at 1 mg/kg, iv measured after 24 hrs by LC/MS/MS analysis; format: ADME, organism-based; conditions: in vivo, read-out: Vdss
[26] = Half life in Sprague-Dawley rat at 1 mg/kg, iv measured after 24 hrs by LC/MS/MS analysis; format: ADME, organism-based; conditions: in vivo

Question: What does the source list for CCOc1ccn(-c2ccc(F)cc2)c(=O)c1C(=O)Nc1ccc(Oc2ccnc(N)c2Cl)c(F)c1 [BMS-777607]?
Answer: GI50 [1]: > 10000 nM; GI50 (CAPAN-1): 9020 nM; GI50 (KM12C [2]): 133 nM; GI50 [3]: > 10000 nM; inhibition in vivo at 10 mg/kg [4]: 1.5%; GI50 (ASPC1): > 10000 nM; GI50 (SW480): > 10000 nM; GI50 (SW1417): > 10000 nM; GI50 (PANC-03-27): > 10000 nM; GI50 (PANC-1): > 10000 nM; GI50 (MIA PaCa-2): > 10000 nM; GI50 (HCT-15): 5000 nM; GI50 (LS-411N): > 10000 nM; inhibition in vivo at 30 mg/kg (T84): 46.9%; GI50 (SW-620 [5]): 860 nM; GI50 (HT-29 [6]): > 10000 nM; inhibition in vivo at 30 mg/kg (SW-620 [7]): 41.6%

Question: For CCOc1ccn(-c2ccc(F)cc2)c(=O)c1C(=O)Nc1ccc(Oc2ccnc3cc(-c4ccc(CN5CCOCC5)cn4)sc23)c(F)c1, which inhibition (NIH3T3 [8]) is on record?
Answer: The inhibition was “Active”.

Question: What about the inhibition (NIH3T3 [9]) of the same compound?
Answer: Its inhibition is “Active”.

Question: And the GI50 [1]?
Answer: Its GI50 is 450 nM.

Question: And the inhibition in vivo at 3 mg/kg (KM12C [10])?
Answer: The inhibition in vivo at 3 mg/kg was 35%.

Question: What about the CL [11] of the same compound?
Answer: The CL was 11.5 mL/min/kg.

Question: What about the GI50 (CAPAN-1) of the same compound?
Answer: The GI50 was 550 nM.

Question: And the GI50 (KM12C [2])?
Answer: The GI50 was 7 nM.

Question: What about the GI50 [3] of the same compound?
Answer: Its GI50 is 550 nM.

Question: What about the inhibition (NIH3T3 [12]) of the same compound?
Answer: The inhibition was “Active”.

Question: And the inhibition in vivo at 30 mg/kg (KM12C [13])?
Answer: The inhibition in vivo at 30 mg/kg was 85.2%.

Question: What about the inhibition in vivo at 10 mg/kg [4] of the same compound?
Answer: Its inhibition in vivo at 10 mg/kg is 74.9%.

Question: What about the inhibition in vivo at 10 mg/kg (KM12C [14]) of the same compound?
Answer: The inhibition in vivo at 10 mg/kg was 73%.

Question: And the AUC [15]?
Answer: Its AUC is 7240 ng·h/mL.

Question: What about the half-life [16] of the same compound?
Answer: The half-life was 3.1 h.

Question: And the GI50 (ASPC1)?
Answer: Its GI50 is 460 nM.

Question: And the remaining at 0.5 h [17]?
Answer: The remaining at 0.5 h was 69%.

Question: And the F [18]?
Answer: The F was 87.01%.

Question: And the GI50 (SW480)?
Answer: The GI50 was 340 nM.

Question: And the Activity (KM12C [19])?
Answer: Its Activity is 41.9%.

Question: What about the Cmax [20] of the same compound?
Answer: The Cmax was 2020 ng/mL.

Question: And the GI50 (SW1417)?
Answer: The GI50 was 320 nM.

Question: What about the GI50 (PANC-03-27) of the same compound?
Answer: Its GI50 is 7340 nM.

Question: And the GI50 (PANC-1)?
Answer: The GI50 was 2400 nM.

Question: And the AUC [21]?
Answer: The AUC was 12600 ng·h/mL.

Question: What about the Activity (HT-29 [22]) of the same compound?
Answer: The Activity was 51.3%.

Question: And the GI50 (MIA PaCa-2)?
Answer: Its GI50 is 630 nM.

Question: What about the Tmax [23] of the same compound?
Answer: The Tmax was 1 h.

Question: What about the GI50 (HCT-15) of the same compound?
Answer: The GI50 was 290 nM.

Question: And the GI50 (LS-411N)?
Answer: The GI50 was 1010 nM.

Question: What about the inhibition in vivo at 1 mg/kg (KM12C [24]) of the same compound?
Answer: The inhibition in vivo at 1 mg/kg was 29.4%.

Question: And the inhibition in vivo at 30 mg/kg (T84)?
Answer: The inhibition in vivo at 30 mg/kg was 88.3%.

Question: What about the GI50 (SW-620 [5]) of the same compound?
Answer: The GI50 was 320 nM.

Question: What about the Vd [25] of the same compound?
Answer: Its Vd is 2.25 L/kg.

Question: What about the half-life [26] of the same compound?
Answer: The half-life was 3.28 h.

Question: What about the inhibition in vivo at 30 mg/kg (SW-620 [7]) of the same compound?
Answer: Its inhibition in vivo at 30 mg/kg is 79.8%.
